Measurements from patent publication US20250129070A1, “BIFUNCTIONAL ANDROGEN RECEPTOR COMPOUNDS” (priority 2023, published 2025).

The compounds below were run on AR / CBP ternary complex (assay: Ternary complex formation assay (sandwich ELISA, AR capture / CBP detection) in VCaP cell lysates). Settings: 1.5 hours treatment, sandwich ELISA (AR capture, CBP or p300 detection).
Type: cell-based
Outline: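 Anti-AR (AR 441)-coated plates capture AR from lysates of VCaP cells grown ≥3 days at 50K/well in 5% charcoal-stripped FBS, dosed with bifunctional for 1.5 h and lysed 30 min at 4 °C. Co-captured CBP/p300 is probed with rabbit mAb and HRP anti-rabbit, then QuantaRed fluorescence (570/585) is read at 0, 5 and 15 min.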

| SMILES | EC50 |
| --- | --- |
| COc1cc(OC2C(C)(C)C(NC(=O)c3ccc(N4CCC5(CC4)CC(Oc4ccc(-c6cc7c(cc6C(F)F)N(c6nn(C8CCOCC8)c8c6CN(C(C)=O)CC8)CCC7)cc4)C5)cc3)C2(C)C)ccc1C#N (stereo not drawn) [Compound 307, 4-[2-[4-[1-(5-acetyl-1-tetrahydropyran-4-yl-6,7-dihydro-4H-pyrazolo[4,3-c]pyridin-3-yl)-7-(difluoromethyl)-3,4-dihydro-2H-quinolin-6-yl]phenoxy]-7-azaspiro[3.5]nonan-7-yl]-N-[3-(4-cyano-3-methoxy-phenoxy)-2,2,4,4-tetramethyl-cyclobutyl]benzamide] | 1 to 10 nM |
| COc1cc(OC2C(C)(C)C(NC(=O)c3ccc(N4CCC(C5CCC(n6nc(N7CCCc8cc(-c9cnn(C)c9)c(C(F)F)cc87)c7c6CCN(C(C)=O)C7)CC5)CC4)cc3)C2(C)C)ccc1C#N (stereo not drawn) [Compound 259, 4-[4-[4-[5-acetyl-3-[7-(difluoromethyl)-6-(1-methylpyrazol-4-yl)-3,4-dihydro-2H-quinolin-1-yl]-6,7-dihydro-4H-pyrazolo[4,3-c]pyridin-1-yl]cyclohexyl]-1-piperidyl]-N-[3-(4-cyano-3-methoxy-phenoxy)-2,2,4,4-tetramethyl-cyclobutyl]benzamide] | 1 to 10 nM |
| COc1cc(O[C@H]2C(C)(C)[C@H](NC(=O)c3ccc(N4CCN(C5CN(c6ccc(-c7cc8c(cc7C(F)F)N(c7nn(C9CCOCC9)c9c7CN(C(C)=O)CC9)CCC8)cn6)C5)CC4)cc3)C2(C)C)ccc1C#N [Compound 326, 4-(4-(1-(5-(1-(5-acetyl-1-(tetrahydro-2H-pyran-4-yl)-4,5,6,7-tetrahydro-1H-pyrazolo[4,3-c]pyridin-3-yl)-7-(difluoromethyl)-1,2,3,4-tetrahydroquinolin-6-yl)pyridin-2-yl)azetidin-3-yl)piperazin-1-yl)-N-((1r,3r)-3-(4-cyano-3-methoxyphenoxy)-2,2,4,4-tetramethylcyclobutyl)benzamide] | < 1 nM |
| CC(=O)N1CCc2c(c(N3CCCc4cc(-c5cnn(C)c5)c(C)cc43)nn2C2CN(CCC3CCN(c4ncc(C(=O)NC5C(C)(C)C(Oc6ccc(C#N)c(Cl)c6)C5(C)C)cn4)CC3)C2)C1 (stereo not drawn) [Compound 160, 2-[4-[2-[3-[5-acetyl-3-[7-methyl-6-(1-methylpyrazol-4-yl)-3,4-dihydro-2H-quinolin-1-yl]-6,7-dihydro-4H-pyrazolo[4,3-c]pyridin-1-yl]azetidin-1-yl]ethyl]-1-piperidyl]-N-[3-(3-chloro-4-cyano-phenoxy)-2,2,4,4-tetramethyl-cyclobutyl]pyrimidine-5-carboxamide] | > 100 nM |
| COc1cc(OC2C(C)(C)C(NC(=O)c3ccc(N4CC(N5CCCC6(CCC(n7nc(N8CCCc9cc(-c%10cnn(C)c%10)c(C(F)F)cc98)c8c7CCN(C(C)=O)C8)CC6)C5)C4)cc3)C2(C)C)ccc1C#N (stereo not drawn) [Compound 416, 4-[3-[9-[5-acetyl-3-[7-(difluoromethyl)-6-(1-methylpyrazol-4-yl)-3,4-dihydro-2H-quinolin-1-yl]-6,7-dihydro-4Hpyrazolo[4,3-c]pyridin-1-yl]-2-azaspiro[5.5]undecan-2-yl]azetidin-1-yl]-N-[3-(4-cyano-3-methoxy-phenoxy)-2,2,4,4-tetramethyl-cyclobutyl]benzamide] | 1 to 10 nM |
| COc1cc(OC2C(C)(C)C(NC(=O)c3ccc(N4CCC5(CCC(n6nc(N7CCCc8cc(-c9cnn(C)c9)c(C(F)F)cc87)c7c6CCN(C(C)=O)C7)CC5)C4)cc3)C2(C)C)ccc1C#N (stereo not drawn) [Compound 405, 4-[8-[5-acetyl-3-[7-(difluoromethyl)-6-(1-methylpyrazol-4-yl)-3,4-dihydro-2H-quinolin-1-yl]-6,7-dihydro-4H-pyrazolo[4,3-c]pyridin-1-yl]-2-azaspiro[4.5]decan-2-yl]-N-[3-(4-cyano-3-methoxy-phenoxy)-2,2,4,4-tetramethyl-cyclobutyl]benzamide] | 10 to 100 nM |
| CC(=O)N1CCc2c(c(Nc3ccc(-c4cnn(C)c4)cc3F)nn2C2CCN(CCC3CCN(c4ncc(C(=O)NC5C(C)(C)C(Oc6ccc(C#N)c(Cl)c6)C5(C)C)cn4)CC3)C2)C1 (stereo not drawn) [Compound 6, 2-[4-[2-[3-[5-acetyl-3-[2-fluoro-4-(1-methylpyrazol-4-yl)anilino]-6,7-dihydro-4H-pyrazolo[4,3-c]pyridin-1-yl]pyrrolidin-1-yl]ethyl]-1-piperidyl]-N-[3-(3-chloro-4-cyano-phenoxy)-2,2,4,4-tetramethyl-cyclobutyl]pyrimidine-5-carboxamide] | > 100 nM |

Further lines, results first:

| EC50 | SMILES |
| --- | --- |
| < 1 nM | CC(=O)N1CCc2c(c(N3CCCc4cc(-c5cnn(C)c5)c(C(F)F)cc43)nn2C2CCC(N3CCN(c4ncc(C(=O)NC5C(C)(C)C(Oc6ccc(C#N)c(Cl)c6)C5(C)C)cn4)CC3)CC2)C1 (stereo not drawn) [Compound 391, 2-[4-[4-[5-acetyl-3-[7-(difluoromethyl)-6-(1-methylpyrazol-4-yl)-3,4-dihydro-2H-quinolin-1-yl]-6,7-dihydro-4H-pyrazolo[4,3-c]pyridin-1-yl]cyclohexyl]piperazin-1-yl]-N-[3-(3-chloro-4-cyano-phenoxy)-2,2,4,4-tetramethyl-cyclobutyl]pyrimidine-5-carboxamide] |
| < 1 nM | COc1cc(OC2C(C)(C)C(NC(=N)c3ccc(N4CCC(N(C)C5CCC(n6nc(N7CCCc8cc(-c9cnn(C)c9)c(C(F)F)cc87)c7c6CCN(C(C)=O)C7)CC5)CC4)cc3)C2(C)C)ccc1C#N (stereo not drawn) [Compound 278, 4-[4-[[4-[5-acetyl-3-[7-(difluoromethyl)-6-(1-methylpyrazol-4-yl)-3,4-dihydro-2H-quinolin-1-yl]-6,7-dihydro-4H-pyrazolo[4,3-c]pyridin-1-yl]cyclohexyl]-methyl-amino]-1-piperidyl]-N-[3-(4-cyano-3-methoxy-phenoxy)-2,2,4,4-tetramethyl-cyclobutyl]benzamidine] |
| < 1 nM | CC(=O)N1CCc2c(c(N3CCCc4cc(-c5cnn(C)c5)c(C(F)F)cc43)nn2C2CCN(C(C)C3CCN(c4ncc(C(=O)NC5C(C)(C)C(Oc6ccc(C#N)c(Cl)c6)C5(C)C)cn4)CC3)CC2)C1 (stereo not drawn) [Compound 113, 2-[4-[1-[4-[5-acetyl-3-[7-(difluoromethyl)-6-(1-methylpyrazol-4-yl)-3,4-dihydro-2H-quinolin-1-yl]-6,7-dihydro-4H-pyrazolo[4,3-c]pyridin-1-yl]-1-piperidyl]ethyl]-1-piperidyl]-N-[3-(3-chloro-4-cyano-phenoxy)-2,2,4,4-tetramethyl-cyclobutyl]pyrimidine-5-carboxamide] |
| < 1 nM | CC(=O)N1CCc2c(c(N3CCCc4cc(-c5cnn(C)c5)c(C(F)F)cc43)nn2C2CN(C(=O)CC3CCN(c4ncc(C(=O)NC5C(C)(C)C(Oc6ccc(C#N)c(Cl)c6)C5(C)C)cn4)CC3)C2)C1 (stereo not drawn) [Compound 163, 2-[4-[2-[3-[5-acetyl-3-[7-(difluoromethyl)-6-(1-methylpyrazol-4-yl)-3,4-dihydro-2H-quinolin-1-yl]-6,7-dihydro-4H-pyrazolo[4,3-c]pyridin-1-yl]azetidin-1-yl]-2-oxo-ethyl]-1-piperidyl]-N-[3-(3-chloro-4-cyano-phenoxy)-2,2,4,4-tetramethyl-cyclobutyl]pyrimidine-5-carboxamide] |
| < 1 nM | CC(=O)N1CCc2c(c(N3CCCc4cc(-c5cnn(C)c5)c(C(F)F)cc43)nn2CCOc2ncc(C(=O)NC3C(C)(C)C(Oc4ccc(C#N)c(Cl)c4)C3(C)C)cn2)C1 (stereo not drawn) [Compound 46, 2-[2-[5-acetyl-3-[7-(difluoromethyl)-6-(1-methylpyrazol-4-yl)-3,4-dihydro-2H-quinolin-1-yl]-6,7-dihydro-4H-pyrazolo[4,3-c]pyridin-1-yl]ethoxy]-N-[3-(3-chloro-4-cyano-phenoxy)-2,2,4,4-tetramethyl-cyclobutyl]pyrimidine-5-carboxamide] |
| < 1 nM | COc1cc(OC2C(C)(C)C(NC(=O)c3ccc(N4CC5(CCC(N6CCC(n7nc(N8CCCc9cc(C#N)c(C(F)F)cc98)c8c7CCN(C(C)=O)C8)CC6)CC5)C4)cc3)C2(C)C)ccc1C#N (stereo not drawn) [Compound 452, 4-[7-[4-[5-acetyl-3-[6-cyano-7-(difluoromethyl)-3,4-dihydro-2H-quinolin-1-yl]-6,7-dihydro-4H-pyrazolo[4,3-c]pyridin-1-yl]-1-piperidyl]-2-azaspiro[3.5]nonan-2-yl]-N-[3-(4-cyano-3-methoxy-phenoxy)-2,2,4,4-tetramethyl-cyclobutyl]benzamide] |
| < 1 nM | CC(=O)N1CCc2c(c(N3CCCc4cc(-c5cnn(C)c5)c(C(F)F)cc43)nn2C2CCN(CC3C(C)CN(c4ncc(C(=O)NC5C(C)(C)C(Oc6ccc(C#N)c(C(F)(F)F)c6)C5(C)C)cn4)CC3C)CC2)C1 (stereo not drawn) [Compound 463, 2-[4-[[4-[5-acetyl-3-[7-(difluoromethyl)-6-(1-methylpyrazol-4-yl)-3,4-dihydro-2H-quinolin-1-yl]-6,7-dihydro-4H-pyrazolo[4,3-c]pyridin-1-yl]-1-piperidyl]methyl]-3,5-dimethyl-1-piperidyl]-N-[3-[4-cyano-3-(trifluoromethyl)phenoxy]-2,2,4,4-tetramethyl-cyclobutyl]pyrimidine-5-carboxamide] |
| < 1 nM | CC(=O)N1CCc2c(c(N3CCCc4cc(-c5cnn(C)c5)c(C(F)F)cc43)nn2C2CCN(C3CC(C#Cc4ncc(C(=O)NC5C(C)(C)C(Oc6ccc(C#N)c(Cl)c6)C5(C)C)cn4)C3)CC2)C1 (stereo not drawn) [Compound 295, 2-[2-[3-[4-[5-acetyl-3-[7-(difluoromethyl)-6-(1-methylpyrazol-4-yl)-3,4-dihydro-2H-quinolin-1-yl]-6,7-dihydro-4H-pyrazolo[4,3-c]pyridin-1-yl]-1-piperidyl]cyclobutyl]ethynyl]-N-[3-(3-chloro-4-cyano-phenoxy)-2,2,4,4-tetramethyl-cyclobutyl]pyrimidine-5-carboxamide] |
